Results published in ChEMBL document CHEMBL4616687, “Ligand Design for Cereblon Based Immunomodulatory Therapy” (ACS Med Chem Lett, 2020).

Target: Bromodomain-containing protein 4 (Homo sapiens, UniProt O60885)
Experiment: Inhibition of BRD4 bromodomain 2 (unknown origin) in HEK293 cells cotransfected with eGFP by flow cytometry based mCherry reporter gene analysis
Assay type: cell-based

Row | IC50 [nM] | SMILES
1 | 1600 | O=C1CCC(N2Cc3c(NC(=O)CNc4ccnc(N5CCC[C@@H]5CO)n4)cccc3C2=O)C(=O)N1 (stereo not given in full)
2 | 7700 | Nc1ccnc2c(C(=O)NC3CCC(=O)NC3=O)cccc12 (stereo not given)
3 | 3440 | CN(c1ccccc1)c1nccc(NCC(=O)Nc2cccc3c2CN(C2CCC(=O)NC2=O)C3=O)n1 (stereo not given)
4 | 2900 | Nc1ccc(C(=O)NC2CCC(=O)NC2=O)c2ncccc12 (stereo not given)
5 | 517 | O=C1CCC(N2Cc3c(NC(=O)CNc4ccnc(N5CCN(c6cccc(C(F)(F)F)c6)CC5)n4)cccc3C2=O)C(=O)N1 (stereo not given)
